{"source": "patent US20240382555A1", "about": "“PEPTIDES WITH ANTI-ANGIOGENIC ACTIVITY” (priority 2021, published 2024)", "type_in_all_cases": "cell-based, human", "key": {"HUVECs [1]": {"test_system": "HUVECs", "test": "Tube formation assay, HUVECs on growth factor-reduced Matrigel with pro-angiogenic stimuli", "conditions": "for anti-angiogenic activity (number of tubes/well): HUVECs, 50 ng/ml VEGF-A or FGF-2, 10 ng/ml peptide, FIG. 5", "experimental": "Tube formation assays were performed as described in Caccuri F. et al., “Evolution toward beta common chain receptor usage links the matrix proteins of HIV-1 and its ancestors to human erythropoietin,” Proc Natl Acad Sci USA. 2021; 11810.\nBriefly, 150 μl of Cultrex Basement Membrane Extract (Matrigel; 10 mg/ml) (Trevigen Inc., Gaithersburg, MD, USA) or reduced growth factor Matrigel (Trevigen Inc.) were transferred to prechilled 48-well culture plates. The plates were then incubated for 1 h at 37° C.\nCells were resuspended in EGM growth medium containing 10% FBS and seeded (5×10^4 per well). […] Capillary structures were photographed with a Hitachi KP-D50 camera and then quantified as the number of tubes/well.\nIn some experiments, HUVECs were stimulated with optimal concentrations of human pro-angiogenic molecules such as vascular endothelial growth factor-A (VEGF-A), fibroblast growth factor-2 (FGF-2), or interleukin-8 (IL-8). Experiments were conducted using nucleofected cells or cells stimulated with U94-derived peptides.\nTo evaluate the ability of the peptide of sequence SEQ ID No. 2 to influence the ability of HUVECs to respond to stimulation exerted by different angiogenic mediators, HUVECs were seeded on growth-reduced Matrigel in the absence (NT) or presence of optimal concentrations of different pro-angiogenic stimuli (VEGF-A, FGF-2, or IL-8) alone or in the presence of a control peptide (CTRL) or of the peptide of sequence SEQ ID No. 2 (KDKY).\nHUVECs were seeded on reduced growth factor Matrigel-coated wells wells in complete medium containing 50 ng/ml of VEGF-A or FGF-2 alone or in combination with 10 ng/ml of the control peptide (CTRL), or KDKY, AKDY, KAKY, KDAY or KDKA.\nHUVECs were seeded on reduced growth factor Matrigel-coated wells in complete medium containing 50 ng/ml of VEGF-A or FGF-2 alone or in combination with 10 ng/ml of CTRL, KDKY, DKY or DRY."}, "HUVECs [2]": {"test_system": "HUVECs", "test": "Spheroids assay, HUVEC spheroids in type I collagen gel with pro-angiogenic stimuli", "conditions": "HUVEC spheroids stimulated with VEGF-A, FGF-2 or IL-8; FIG. 2", "experimental": "The assay was performed using nucleofected cells or cells stimulated with U94-derived peptides. Spheroids were generated by mixing HUVECs (1.5×10^5 cells/ml) with 5 mg/ml methylcellulose (Sigma-Aldrich) in EGM growth medium containing 10% FBS, bringing the final volume to 10 ml.\nThe cells (100 μl/well) were then added to 96-well plates (Greiner Bio-one, Kremsmünster, Austria) and incubated at 37° C., in a 5% CO2 atmosphere for 24 hours.\nSeparately, the collagen I gel solution (Rat Tail, Corning) was maintained on ice and neutralized by adding NaOH 0.1 M and PBS 10× to a final pH of 7.4.\nThen, 24-well plates were coated with neutralized collagen (200 μl/well) and incubated in a humidified 5% CO2 incubator for 1 hour at 37° C.\nThe spheroids from the 96-well plates were collected in Eppendorf tubes and centrifuged at 4000×rpm for 5 to 10 seconds. When a clear pellet was distinguished, the supernatant was removed and the pellet was kept in a volume of about 100 μl of collagen I-neutralized solution.\nEach collagen-spheroid mixture was rapidly added to pre-coated 24-well plates at 100 μl/well and incubated for 1 h. […]\nSprouting occurred from the spheroid core, which was photographed with a Hitachi KP-D50 camera, and the sprout number was counted with the spheroids similar sizes from three different wells of the plate. […]"}, "[3]": {"test_system": "SARS-CoV-2-infected HL-mECs", "conditions": "growth factor-reduced Matrigel; MOI 1; FIG. 3"}, "[4]": {"test_system": "SARS-CoV-2-infected HL-mECs", "conditions": "SARS-CoV-2-infected spheroids; FIG. 4"}}, "data": [{"substance": "KDKY [SEQ ID No. 2]", "values": [{"measurement": "angiogenic activity (tube formation, number of tubes/well)", "setting": "HUVECs [1]; HUVECs stimulated with VEGF-A, FGF-2 or IL-8, 8 hours after seeding on Matrigel, FIG. 1", "result": "significantly impaired"}, {"measurement": "anti-angiogenic activity (number of tubes/well)", "setting": "HUVECs [1]", "result": "able to block angiogenic activity"}, {"measurement": "sprouting response (number of sprouts per spheroid)", "setting": "HUVECs [2]", "result": "drastic reduction in the sprouting response"}, {"measurement": "angiogenic activity (number of tubes/well) of SARS-CoV-2-infected HL-mECs", "setting": "[3]", "result": "did not perform any angiogenic activity"}, {"measurement": "SARS-CoV-2-induced angiogenesis (number of sprouts per spheroid)", "setting": "[4]", "result": "potently inhibited"}]}, {"substance": "DKY", "values": [{"measurement": "anti-angiogenic activity (number of tubes/well)", "setting": "HUVECs [1]", "result": "able to block angiogenic activity"}]}, {"substance": "ADKY [tetra-peptide, first amino acid of KDKY replaced by alanine]", "values": [{"measurement": "anti-angiogenic activity (number of tubes/well)", "setting": "HUVECs [1]", "result": "maintained potent anti-angiogenic activity"}]}, {"substance": "DRY", "values": [{"measurement": "anti-angiogenic activity (number of tubes/well)", "setting": "HUVECs [1]", "result": "able to block angiogenic activity"}]}]}
